Values after ≈ are worked out from the molar mass of the structure shown.
The compounds below were run on L1210 cells (assay: In vitro Growth Inhibitory Activity Determination (L1210 cells, MTT)). Settings: Mus musculus, 72 h, 3 days incubation at 37° C., dose of drug that inhibits the growth of cells to one half that of the control cells, read-out: ID50 (the source's name).
Assay type: cell-based
Method: L1210 cells were maintained in RPMI=1640 a medium supplemented with 10% heat inactivated fetal bovine serum and […] mercaptomethanol/liter medium (RPMI-L).
Exponential growing L1210 cells (1×10^3 cells) in 0.1 mL medium were seeded on day 0 in a 96-well microtiter plate. On day 1, 0.1 mL aliquot of medium containing graded concentration of test analogs was added to the initial volume. After incubation at 37° C. in a humidified incubator for 3 days, the plates were centrifuged briefly and […] of the growth medium was removed. Cell cultures were incubated with […] of 3-(4, 5-dimethylthiazol-2yl)-2,5- diphenyltetrazolium bromide (MTT; 1 mg/ml in Dulbecco's phosphate buffer saline) for 4 hours at 37° C. The resulting purple formazan precipitate was solubilized with […] of 0.04 N HCl in isopropyl alcohol. Absorbance was read in a Titertek Multiskan MCC scaning well spectrophotometer (Flow Laboratories) at a test wavelength of 570 nm and a reference wavelength of 630 nm.
The absorbances were stored on a floppy disk on a IBM-XT and uploaded on to a VAX computer.
Y=((AM - Ao)/(1+(X/ID50)n))+Ao
Am=absorbance of the control cells
Ao=absorbance of the cells in the presence of highest drug conc.
ID50 =dose of drug that inhibits the growth of cells to one half that of the control cells.

| Compound | IC50 [µg/mL] |
| --- | --- |
| C[C@@H](C(=O)NCCNC(=O)[C@H](C)N1C(=O)c2cccc3cc([N+](=O)[O-])cc(c23)C1=O)N1C(=O)c2cccc3cc([N+](=O)[O-])cc(c23)C1=O [Example 1, (S,S)-N,N'-1,2-ethanediylbis[α-methyl-5-nitro-1,3-dioxo-1H-benz[de]isoquinoline-2(3H)-acetamide]] | 0.61 (≈ 0.935 µM) |
| C[C@H](C(=O)NCCNC(=O)[C@@H](C)N1C(=O)c2cccc3cc([N+](=O)[O-])cc(c23)C1=O)N1C(=O)c2cccc3cc([N+](=O)[O-])cc(c23)C1=O [Example 2, (R,R)-N,N'-1,2-ethanediylbis[α-methyl-5-nitro-1,3-dioxo-1H-benz[de]isoquinoline-2(3H)-acetamide]] | 0.033 (≈ 0.0506 µM) |
| CSCC[C@@H](C(=O)NCCCNC(=O)[C@H](CCSC)N1C(=O)c2cccc3cc([N+](=O)[O-])cc(c23)C1=O)N1C(=O)c2cccc3cc([N+](=O)[O-])cc(c23)C1=O [Example 3] | 0.12 (≈ 0.153 µM) |
| C[C@@H](C(=O)NCCCCNC(=O)[C@H](C)N1C(=O)c2cccc3cc([N+](=O)[O-])cc(c23)C1=O)N1C(=O)c2cccc3cc([N+](=O)[O-])cc(c23)C1=O [Example 4] | 0.36 (≈ 0.529 µM) |
| C[C@@H](C(=O)NCCCNC(=O)[C@H](C)N1C(=O)c2cccc3cc([N+](=O)[O-])cc(c23)C1=O)N1C(=O)c2cccc3cc([N+](=O)[O-])cc(c23)C1=O [Example 5] | 0.025 (≈ 0.0375 µM) |
| C[C@@H](C(=S)NCCNC(=S)[C@H](C)N1C(=O)c2cccc3cc([N+](=O)[O-])cc(c23)C1=O)N1C(=O)c2cccc3cc([N+](=O)[O-])cc(c23)C1=O [Example 6, (S,S)-N,N'-1,2-ethanediylbis[α-methyl-5-nitro-1,3-dioxo-1H-benz[de]isoquinoline-2(3H)ethanethioamide]] | 0.184 (≈ 0.269 µM) |
| O=C(CCN1C(=O)c2cccc3cc([N+](=O)[O-])cc(c23)C1=O)NCCCCNC(=O)CCN1C(=O)c2cccc3cc([N+](=O)[O-])cc(c23)C1=O [Example 7] | 19 (≈ 27.9 µM) |
| O=C(CCN1C(=O)c2cccc3cc([N+](=O)[O-])cc(c23)C1=O)NCCCNC(=O)CCN1C(=O)c2cccc3cc([N+](=O)[O-])cc(c23)C1=O [Example 8] | > 20 |
| O=C(CCN1C(=O)c2cccc3cc([N+](=O)[O-])cc(c23)C1=O)NCCNC(=O)CCN1C(=O)c2cccc3cc([N+](=O)[O-])cc(c23)C1=O [Example 9] | 15.1 (≈ 23.1 µM) |
